Source: article PMC9060465 (Proceedings of the National Academy of Sciences of the …, 2022)

Legend:
[1] = target: T1, GLP-1R (Homo sapiens, UniProt P43220); assay: GRK2 recruitment to the GLP-1R, NanoBRET; type: cell-based; design: expressed in transfected cells; host or cells: freestyle HEK cells; conditions: efficacy (% Top), relative to maximal GLP-1; (SEM)
Description: After 48 h, transfected cells were incubated in phosphate-buffered saline (PBS) containing 0.1% (wt/vol) bovine casein and varying concentrations of the ligands. […]
The potency (EC50) and efficacy (% Top) for ligands to induce GLP-1R Internalization were
determined using diffusion-enhanced resonance energy transfer.
relative efficacy for NanoBRET assays. SPR data were analyzed using T200 evaluation software (Cytiva). All data are presented as geometric means with SEM and n values
(§1) according to established practices. ND, not determined. NA, not applicable.
Target sequence in this assay (P43220 24-463): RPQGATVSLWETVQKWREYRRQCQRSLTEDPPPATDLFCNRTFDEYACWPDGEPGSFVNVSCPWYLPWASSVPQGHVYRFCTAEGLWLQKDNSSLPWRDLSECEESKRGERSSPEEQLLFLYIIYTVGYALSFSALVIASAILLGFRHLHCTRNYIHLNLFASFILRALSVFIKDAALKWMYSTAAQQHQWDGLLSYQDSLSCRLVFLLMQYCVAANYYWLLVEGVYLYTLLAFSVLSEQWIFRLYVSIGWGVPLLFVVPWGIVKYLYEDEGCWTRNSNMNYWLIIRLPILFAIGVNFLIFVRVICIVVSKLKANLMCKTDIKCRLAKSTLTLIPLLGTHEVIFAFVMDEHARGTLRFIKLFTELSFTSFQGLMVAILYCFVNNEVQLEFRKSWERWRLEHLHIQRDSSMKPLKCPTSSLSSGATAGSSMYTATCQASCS
Target sequence in this assay (P25098 whole entry partner): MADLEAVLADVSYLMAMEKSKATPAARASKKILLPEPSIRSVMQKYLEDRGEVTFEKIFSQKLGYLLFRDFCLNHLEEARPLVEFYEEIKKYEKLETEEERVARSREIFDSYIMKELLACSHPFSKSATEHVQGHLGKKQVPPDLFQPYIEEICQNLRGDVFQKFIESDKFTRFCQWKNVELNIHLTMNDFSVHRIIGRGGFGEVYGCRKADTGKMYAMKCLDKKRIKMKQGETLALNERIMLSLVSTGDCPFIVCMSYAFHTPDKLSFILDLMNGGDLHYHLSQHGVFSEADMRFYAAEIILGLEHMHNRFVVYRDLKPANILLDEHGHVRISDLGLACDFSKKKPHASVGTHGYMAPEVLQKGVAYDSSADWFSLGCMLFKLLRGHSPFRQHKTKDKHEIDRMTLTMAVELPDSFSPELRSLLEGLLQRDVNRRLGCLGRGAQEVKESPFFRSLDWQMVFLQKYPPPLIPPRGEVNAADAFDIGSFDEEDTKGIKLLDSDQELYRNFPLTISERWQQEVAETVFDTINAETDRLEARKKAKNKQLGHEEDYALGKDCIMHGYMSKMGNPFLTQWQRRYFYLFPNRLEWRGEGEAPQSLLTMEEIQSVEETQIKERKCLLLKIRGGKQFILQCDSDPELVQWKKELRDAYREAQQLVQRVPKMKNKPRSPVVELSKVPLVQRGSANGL

[2] = target: T1, GLP-1R; assay: β-arrestin 1 recruitment to the GLP-1R, NanoBRET; type: cell-based; design: expressed in transfected cells; conditions: efficacy (% Top), relative efficacy to GLP-1; (SEM)
Description: Functional potency (EC50) […]
and efficacy (% Top) of ligands to induce Gα s -GTPγS binding and cAMP accumulation in HEK293 cells expressing GIPR were determined. The equilibrium affinity (KD) of ligands for the immobilized ectodomain of the GIPR were quantified by surface plasmon resonance. Middle Panel: The affinity (Ki) of ligands for the GLP-1R was […]
(§2) Functional potency (EC50) and efficacy (% Top) of ligands to induce Gα s-GTPγS binding and cAMP accumulation in HEK293 cells expressing GLP-1R were determined. The equilibrium affinity (KD) of ligands for the immobilized ectodomain of the GLP-1R were quantified by surface plasmon resonance. […]
recruitment to the GLP-1R were determined using the NanoBRET approach. The potency (EC50) and efficacy (% Top) for ligands to induce GLP-1R Internalization were determined using diffusion-enhanced resonance energy transfer. […]
relative efficacy for NanoBRET assays. SPR data were analyzed using T200 evaluation software (Cytiva). All data are presented as geometric means with SEM and n values according to established practices. ND, not determined. NA, not applicable.
Target sequence in this assay (P43220 24-463): as the sequence (P43220 24-463) above
Target sequence in this assay (P49407 whole entry partner): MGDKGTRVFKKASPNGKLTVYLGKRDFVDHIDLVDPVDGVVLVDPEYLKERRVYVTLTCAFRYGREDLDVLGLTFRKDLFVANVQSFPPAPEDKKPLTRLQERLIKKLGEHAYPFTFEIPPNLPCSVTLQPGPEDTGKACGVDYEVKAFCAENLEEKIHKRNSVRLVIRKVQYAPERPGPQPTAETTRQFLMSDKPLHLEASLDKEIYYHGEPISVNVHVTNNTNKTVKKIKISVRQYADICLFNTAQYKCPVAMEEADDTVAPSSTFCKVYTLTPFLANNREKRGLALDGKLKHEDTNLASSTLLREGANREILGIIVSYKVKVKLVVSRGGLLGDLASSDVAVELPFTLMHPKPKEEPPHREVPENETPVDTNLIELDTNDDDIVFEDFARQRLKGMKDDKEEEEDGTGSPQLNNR

[3] = target: T1, GLP-1R; assay: Ligand-induced GLP-1R internalization, SNAP-GLP-1R HEK293 cells; type: cell-based; conditions: efficacy (% Top), percent internalization compared to maximal GLP-1; (SEM)
Target sequence in this assay (P43220 24-463): as the sequence (P43220 24-463) above

[4] = target: T2, human GIPR (Homo sapiens, UniProt P48546); assay: GIPR Gαs [35S]GTPγS binding, GIPR-expressing membranes; type: biochemical; conditions: Gαs-GTPγS binding, GIPR-expressing membranes; albumin-free; geometric mean (SEM, n); read-out: GIPR GTPγS Recruitment EC50
T2 construct: expressed in transfected cells; host or cells: HEK293
T2 sequence (P48546 22-466): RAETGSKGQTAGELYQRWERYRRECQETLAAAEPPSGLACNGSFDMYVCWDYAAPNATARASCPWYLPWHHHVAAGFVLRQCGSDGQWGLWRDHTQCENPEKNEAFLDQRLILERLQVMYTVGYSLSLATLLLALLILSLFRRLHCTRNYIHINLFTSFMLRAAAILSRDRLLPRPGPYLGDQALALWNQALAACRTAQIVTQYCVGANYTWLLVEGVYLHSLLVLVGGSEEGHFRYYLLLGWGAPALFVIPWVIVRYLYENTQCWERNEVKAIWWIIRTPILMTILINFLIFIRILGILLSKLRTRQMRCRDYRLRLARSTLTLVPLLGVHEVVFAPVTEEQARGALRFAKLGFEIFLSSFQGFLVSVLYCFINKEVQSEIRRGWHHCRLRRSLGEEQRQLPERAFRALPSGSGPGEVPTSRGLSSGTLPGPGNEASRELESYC
Description: (§3) Fig. 4. […] (B) Ligand-induced GTPγS binding of Gαs was performed using the GIPR-expressing membranes. […] (C) Agonist-stimulated cAMP production was measured in human GIPR expressing HEK293 cells. […] (E) Ligand-induced GTPγS binding of Gαs was performed using the GLP-1R-expressing membranes. […] (F) Agonist-stimulated cAMP production was measured in human GLP-1R-expressing HEK293 cells. […] Data presented are representative of n ≥ 3 independent experiments. Summarized data are shown in SI Appendix, Table 2. log M; log Molar.
(§4) We note that the albumin-binding propensity of fatty acid-modified peptides can confound a pharmacological comparison of molecules, given the common use of albumin and serum as nonspecific blocking agents in biological assays. Therefore, to obviate this, entirely albumin-free assays supplemented with bovine casein or bacitracin were used to prevent nonspecific binding ([10]).
(§5) Functional potency (EC50)
(§6) and efficacy (% Top) of ligands to induce Gα s -GTPγS binding and cAMP accumulation in HEK293 cells expressing GIPR were determined. The equilibrium affinity (KD) of
(§7) ligands for the immobilized ectodomain of the GIPR were quantified by surface plasmon resonance. […]
(§8) SPR data were analyzed using T200 evaluation software (Cytiva). All data are presented as geometric means with SEM and n values
as §1

[5] = target: T2, human GIPR; assay: [125I]GIP(1-42) competition binding, GIPR-expressing cell membranes; conditions: membranes of HEK293 cells expressing human GIPR, albumin-free, geometric mean (SEM, n)
Description: as §4, §5, §6, §7, §8, §1

[6] = target: T2, human GIPR; assay: GIPR low density cAMP accumulation in HEK293 cells; type: cell-based
Description: as §3, §4, §5, §6, §7, §8, §1

[7] = target: T1, GLP-1R; assay: GLP-1R low density cAMP accumulation in HEK293 cells; type: cell-based; design: expressed in transfected cells; host or cells: HEK293; conditions: efficacy (% Top), normalized to GLP-1(7-36); (SEM)
Description: as §3
as §4, with “([10]). […]” for “([10]).”
(§9) Middle Panel: The affinity (Ki) of ligands for the GLP-1R was […]
as §2
(§10) SPR data were analyzed using T200 evaluation software (Cytiva). All data are presented as geometric means with SEM and n values according to established practices. ND, not determined. NA, not applicable.
Target sequence in this assay (P43220 24-463): as the sequence (P43220 24-463) above

[8] = target: T1, GLP-1R; assay: GLP-1R Gαs [35S]GTPγS binding, GLP-1R-expressing membranes; type: biochemical; design: expressed in transfected cells; host or cells: HEK293; conditions: efficacy (% Top), normalized to GLP-1(7-36); (SEM)
Description: as §3
as §4, with “([10]). […]” for “([10]).”
as §9, §2, §10
Target sequence in this assay (P43220 24-463): as the sequence (P43220 24-463) above

Structure (SMILES): CC[C@H](C)[C@H](NC(=O)[C@H](Cc1ccccc1)NC(=O)[C@H](CCC(=O)O)NC(=O)[C@H](CCCCN)NC(=O)[C@H](C)NC(=O)[C@H](C)NC(=O)[C@H](CCC(N)=O)NC(=O)CNC(=O)[C@H](CCC(=O)O)NC(=O)[C@H](CC(C)C)NC(=O)[C@H](Cc1ccc(O)cc1)NC(=O)[C@H](CO)NC(=O)[C@H](CO)NC(=O)[C@@H](NC(=O)[C@H](CC(=O)O)NC(=O)[C@H](CO)NC(=O)[C@@H](NC(=O)[C@H](Cc1ccccc1)NC(=O)[C@@H](NC(=O)CNC(=O)[C@H](CCC(=O)O)NC(=O)[C@H](C)NC(=O)[C@@H](N)Cc1ccc(O)cc1)[C@@H](C)O)[C@@H](C)O)C(C)C)C(=O)N[C@@H](C)C(=O)N[C@@H](Cc1c[nH]c2ccccc12)C(=O)N[C@@H](CC(C)C)C(=O)N[C@H](C(=O)N[C@@H](CCCCN)C(=O)NCC(=O)N[C@@H](CCCNC(=N)N)C(N)=O)C(C)C [GLP-1 H7Y, reference compound]
- GLP-1R GRK2 Recruitment Top [1]: 54.5 (2.1) %
- GLP-1R β-Arr1 Recruitment Top [2]: 35.3 (3.8) %
- GLP-1R Internalization Top [3]: 73.1 (3.4) %
- EC50 [4]: > 1 µM
- Ki [5]: > 0.128 µM
- EC50 ([6]; cAMP accumulation, HEK293 cells expressing GIPR, albumin-free, geometric mean (SEM, n)): > 4 µM
- GIPR Low Density cAMP Top ([6]; efficacy (% Top), normalized to GIP(1-42), (SEM)): 39.4(9.5) %
- GLP-1R Low Density cAMP Top [7]: 104 (4) %
- GLP-1R GTPγS Recruitment Top [8]: 80.7 (2.2) %
